Measurements taken from patent US12077503B2, “Substituted cyclic amides and their use as herbicides” (FMC CORPORATION, priority 2015, dated 2024).
Read-outs that look alike come from different tables or passages of the source.

Key:
Assay type in all cases: in vivo
[1] = tested on: barnyardgrass (Echinochloa crus-galli); experiment: Test A preemergence; conditions: Echinochloa crus-galli, pre-emergence, 240 h; for pest or weed control at 125 g/ha: 125 g ai/ha; for pest or weed control at 500 g/ha: 500 g ai/ha
Procedure, shortened: (§1)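 Visual injury, scored on a 0–100 scale relative to untreated controls, was recorded about 10 d after application. Treatments were a preemergence soil spray over planted seeds or a postemergence spray on plants at the one- to two-leaf stage, 2 to 10 cm tall, all in loam soil–sand blend in the greenhouse.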

[2] = tested on: Galium (catchweed bedstraw, Galium aparine); experiment: Test A postemergence; conditions: Galium, post-emergence, 240 h, postemergence; for pest or weed control at 125 g/ha: 125 g ai/ha
Procedure, shortened: as §1

[3] = tested on: Kochia (Kochia scoparia); experiment: Test A postemergence; conditions: Bassia scoparia, post-emergence, 240 h, postemergence; for pest or weed control at 125 g/ha: 125 g ai/ha
Procedure, shortened: as §1

[4] = tested on: barnyardgrass (Echinochloa crus-galli); experiment: Test A postemergence; conditions: Echinochloa crus-galli, post-emergence, 240 h, postemergence; for pest or weed control at 125 g/ha: 125 g ai/ha
Procedure, shortened: as §1

[5] = tested on: blackgrass (Alopecurus myosuroides); experiment: Test A postemergence; conditions: Alopecurus myosuroides, post-emergence, 240 h, postemergence; for pest or weed control at 125 g/ha: 125 g ai/ha
Procedure, shortened: as §1

[6] = tested on: corn (Zea mays); experiment: Test A postemergence; conditions: Zea mays, post-emergence, 240 h, postemergence; for plant injury at 125 g/ha: 125 g ai/ha
Procedure, shortened: as §1

[7] = tested on: giant foxtail (Setaria faberii); experiment: Test A postemergence; conditions: Setaria faberi, post-emergence, 240 h, postemergence; for pest or weed control at 125 g/ha: 125 g ai/ha
Procedure, shortened: as §1

[8] = tested on: pigweed (Amaranthus retroflexus); experiment: Test A postemergence; conditions: Amaranthus retroflexus, post-emergence, 240 h, postemergence; for pest or weed control at 125 g/ha: 125 g ai/ha
Procedure, shortened: as §1

[9] = tested on: ragweed (common ragweed, Ambrosia elatior); experiment: Test A postemergence; conditions: Ambrosia artemisiifolia, post-emergence, 240 h, postemergence; for pest or weed control at 125 g/ha: 125 g ai/ha
Procedure, shortened: as §1

[10] = tested on: ryegrass, Italian (Italian ryegrass, Lolium multiflorum); experiment: Test A postemergence; conditions: Lolium multiflorum, post-emergence, 240 h, postemergence; for pest or weed control at 125 g/ha: 125 g ai/ha
Procedure, shortened: as §1

[11] = tested on: wheat (Triticum aestivum); experiment: Test A postemergence; conditions: Triticum aestivum, post-emergence, 240 h, postemergence; for plant injury at 125 g/ha: 125 g ai/ha
Procedure, shortened: as §1

[12] = tested on: barnyardgrass (Echinochloa crus-galli); experiment: Test B flooded paddy test; conditions: Echinochloa crus-galli, 250 g ai/ha, Flood, read-out: Barnyardgrass plant response rating
Procedure, shortened: (§2)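 Rating scale 0–100 (visual, vs untreated controls) after a 13–15 d greenhouse period; application to the flood layer, 3 cm above soil and maintained; plants at 2-leaf stage when treated.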

[13] = tested on: ducksalad (Heteranthera limosa); experiment: Test B flooded paddy test; conditions: Heteranthera limosa, 250 g ai/ha, Flood, read-out: Ducksalad plant response rating
Procedure, shortened: as §2

[14] = tested on: rice (Oryra sativa); experiment: Test B flooded paddy test; conditions: Oryza sativa, 250 g ai/ha, Flood, read-out: Rice plant response rating
Procedure, shortened: as §2

[15] = tested on: sedge, umbrella (small-flower umbrella sedge, Cyperus difformis); experiment: Test B flooded paddy test; conditions: Cyperus difformis, 250 g ai/ha, Flood, read-out: Sedge, Umbrella plant response rating
Procedure, shortened: as §2

[16] = preemergence, 0 to 100 scale where 0 is no effect and 100 is complete control, read-out: Barnyardgrass plant response rating
[17] = 0 to 100 scale where 0 is no effect and 100 is complete control
[18] = scale of 0 to 100 where 0 is no effect and 100 is complete control

`CN1C[C@H](c2ccc(C#N)cc2)[C@@H](C(=O)Nc2cccc(F)c2F)C1=O` [Compound 1208] showed a pest or weed control at 125 g/ha ([1]; preemergence, visual injury rating, 0 to 100 scale where 0 is no effect and 100 is complete control, approximately 10 d, read-out: Barnyardgrass plant response rating) of 90%, a pest or weed control at 500 g/ha [1, 16] of 100% and a pest or weed control at 125 g/ha ([2]; visual injury vs untreated controls after approx. 10 d, 0 = no effect, 100 = complete control, read-out: Galium plant response rating (0 to 100 scale)) of 40%. The pest or weed control at 500 g/ha ([2]; 500 g ai/ha, 0 to 100 scale, 0 is no effect, 100 is complete control, read-out: Galium plant response rating) was 50%, the pest or weed control at 125 g/ha ([3]; visual injury vs untreated controls after approx. 10 d, 0 = no effect, 100 = complete control, read-out: Kochia plant response rating (0 to 100 scale)) was 70% and the pest or weed control at 500 g/ha ([3]; 500 g ai/ha, 0 to 100 scale, 0 is no effect, 100 is complete control, read-out: Kochia plant response rating) was 70%. The pest or weed control at 125 g/ha ([4]; visual injury vs untreated controls after approx. 10 d, 0 = no effect, 100 = complete control, read-out: Barnyardgrass plant response rating (0 to 100 scale)) was 100%, the pest or weed control at 500 g/ha ([4]; 500 g ai/ha, 0 to 100 scale, 0 is no effect, 100 is complete control, read-out: Barnyardgrass plant response rating) was 100% and the pest or weed control at 125 g/ha ([5]; visual injury vs untreated controls after approx. 10 d, 0 = no effect, 100 = complete control, read-out: Blackgrass plant response rating (0 to 100 scale)) was 0%. It also gave a pest or weed control at 500 g/ha ([5]; 500 g ai/ha, 0 to 100 scale, 0 is no effect, 100 is complete control, read-out: Blackgrass plant response rating) of 0%, a plant injury at 125 g/ha ([6]; visual injury vs untreated controls after approx. 10 d, 0 = no effect, 100 = complete control, read-out: Corn plant response rating (0 to 100 scale)) of 20% and a plant injury at 500 g/ha ([6]; 500 g ai/ha, 0 to 100 scale, 0 is no effect, 100 is complete control, read-out: Corn plant response rating) of 50%. The pest or weed control at 125 g/ha ([7]; visual injury vs untreated controls after approx. 10 d, 0 = no effect, 100 = complete control, read-out: Foxtail, Giant plant response rating (0 to 100 scale)) was 70%, the pest or weed control at 500 g/ha ([7]; 500 g ai/ha, 0 to 100 scale, 0 is no effect, 100 is complete control, read-out: Foxtail, Giant plant response rating) was 90% and the pest or weed control at 125 g/ha ([8]; visual injury vs untreated controls after approx. 10 d, 0 = no effect, 100 = complete control, read-out: Pigweed plant response rating (0 to 100 scale)) was 30%. For the same molecule, the pest or weed control at 500 g/ha ([8]; 500 g ai/ha, 0 to 100 scale, 0 is no effect, 100 is complete control, read-out: Pigweed plant response rating) was 60%, the pest or weed control at 125 g/ha ([9]; visual injury vs untreated controls after approx. 10 d, 0 = no effect, 100 = complete control, read-out: Ragweed plant response rating (0 to 100 scale)) was 0% and the pest or weed control at 500 g/ha ([9]; 500 g ai/ha, 0 to 100 scale, 0 is no effect, 100 is complete control, read-out: Ragweed plant response rating) was 40%. For the same molecule, the pest or weed control at 125 g/ha ([10]; visual injury vs untreated controls after approx. 10 d, 0 = no effect, 100 = complete control, read-out: Ryegrass, Italian plant response rating (0 to 100 scale)) was 0%, the pest or weed control at 500 g/ha ([10]; 500 g ai/ha, 0 to 100 scale, 0 is no effect, 100 is complete control, read-out: Ryegrass, Italian plant response rating) was 0% and the plant injury at 125 g/ha ([11]; visual injury vs untreated controls after approx. 10 d, 0 = no effect, 100 = complete control, read-out: Wheat plant response rating (0 to 100 scale)) was 0%. For the same molecule, the plant injury at 500 g/ha ([11]; 500 g ai/ha, 0 to 100 scale, 0 is no effect, 100 is complete control, read-out: Wheat plant response rating) was 20%, the pest or weed control at 250 g/ha [12, 17] was 45% and the pest or weed control at 250 g/ha [13, 17] was 95%. For the same molecule, the pest or weed control at 250 g/ha [14, 17] was 15% and the pest or weed control at 250 g/ha [15, 17] was 0%.
Work on `COc1cc(C(F)(F)F)ccc1[C@H]1CN(C)C(=O)[C@@H]1C(=O)Nc1ccccc1SC` [Compound 860] yielded a pest or weed control at 125 g/ha [1, 16] of 90%, a pest or weed control at 500 g/ha ([1]; Preemergence, visual injury vs untreated controls after approximately 10 d, read-out: Barnyardgrass plant response rating (0 to 100 scale where 0 is no effect and 100 is complete control)) of 90% and a pest or weed control at 125 g/ha ([2]; visual injury rating after approximately 10 d, read-out: Galium plant response rating (0 to 100 scale, 0 no effect, 100 complete control)) of 20%. For the same molecule, the pest or weed control at 125 g/ha ([3]; visual injury rating after approximately 10 d, read-out: Kochia plant response rating (0 to 100 scale, 0 no effect, 100 complete control)) was 0%, the pest or weed control at 125 g/ha ([4]; visual injury rating after approximately 10 d, read-out: Barnyardgrass plant response rating (0 to 100 scale, 0 no effect, 100 complete control)) was 30% and the pest or weed control at 125 g/ha ([5]; visual injury rating after approximately 10 d, read-out: Blackgrass plant response rating (0 to 100 scale, 0 no effect, 100 complete control)) was 0%. The plant injury at 125 g/ha ([6]; visual injury rating after approximately 10 d, read-out: Corn plant response rating (0 to 100 scale, 0 no effect, 100 complete control)) was 0%, the pest or weed control at 125 g/ha ([7]; visual injury rating after approximately 10 d, read-out: Foxtail, Giant plant response rating (0 to 100 scale, 0 no effect, 100 complete control)) was 60% and the pest or weed control at 125 g/ha ([8]; visual injury rating after approximately 10 d, read-out: Pigweed plant response rating (0 to 100 scale, 0 no effect, 100 complete control)) was 0%. It also gave a pest or weed control at 125 g/ha ([9]; visual injury rating after approximately 10 d, read-out: Ragweed plant response rating (0 to 100 scale, 0 no effect, 100 complete control)) of 0%, a pest or weed control at 125 g/ha ([10]; visual injury rating after approximately 10 d, read-out: Ryegrass, Italian plant response rating (0 to 100 scale, 0 no effect, 100 complete control)) of 0% and a plant injury at 125 g/ha ([11]; visual injury rating after approximately 10 d, read-out: Wheat plant response rating (0 to 100 scale, 0 no effect, 100 complete control)) of 20%. For the same molecule, the pest or weed control at 250 g/ha [12, 18] was 0%, the pest or weed control at 250 g/ha [13, 18] was 90% and the pest or weed control at 250 g/ha [14, 18] was 0%. For the same molecule, the pest or weed control at 250 g/ha [15, 18] was 0%.
